Our source for the IC50 values is patent publication US9334286B2, “Pharmacologically active compounds” (Cancer Research Technology Limited, priority 2012, dated 2016).

pIC50: −log10 of the molar value.

Sequence of full length MPS1 (P33981 whole entry): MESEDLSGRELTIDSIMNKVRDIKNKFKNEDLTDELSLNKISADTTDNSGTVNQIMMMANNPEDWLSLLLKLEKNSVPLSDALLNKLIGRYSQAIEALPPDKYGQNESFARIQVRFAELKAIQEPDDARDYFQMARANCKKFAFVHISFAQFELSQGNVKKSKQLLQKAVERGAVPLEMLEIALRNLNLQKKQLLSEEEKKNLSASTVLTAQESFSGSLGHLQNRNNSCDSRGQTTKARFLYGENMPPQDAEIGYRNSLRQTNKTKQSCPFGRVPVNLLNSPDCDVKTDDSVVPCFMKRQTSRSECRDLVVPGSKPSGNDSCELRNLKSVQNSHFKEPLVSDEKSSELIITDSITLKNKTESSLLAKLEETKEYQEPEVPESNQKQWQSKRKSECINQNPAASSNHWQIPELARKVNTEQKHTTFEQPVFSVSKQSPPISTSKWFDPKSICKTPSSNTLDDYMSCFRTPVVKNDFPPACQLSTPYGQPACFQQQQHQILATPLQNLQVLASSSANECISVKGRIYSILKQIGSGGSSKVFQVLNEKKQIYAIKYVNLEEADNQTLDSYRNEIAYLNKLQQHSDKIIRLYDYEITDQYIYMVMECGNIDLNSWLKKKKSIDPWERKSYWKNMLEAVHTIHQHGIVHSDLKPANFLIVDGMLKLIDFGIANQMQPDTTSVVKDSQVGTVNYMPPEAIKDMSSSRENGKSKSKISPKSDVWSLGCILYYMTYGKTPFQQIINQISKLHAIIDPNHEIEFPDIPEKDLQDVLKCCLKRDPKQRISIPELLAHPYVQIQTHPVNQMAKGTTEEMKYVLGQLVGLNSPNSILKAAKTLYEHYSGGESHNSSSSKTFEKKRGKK

This assay concerns the target full length MPS1 (Homo sapiens (Human), UniProt P33981). Description: Measurement of inhibition of MPS1 kinase (Caliper EZ reader, fluorescent labelled peptide H236). The class given is biochemical. Particulars: full length MPS1 12.5 nM or 3 nM, peptide H236 5 μM, ATP 10 μM, 60 min at room temperature. As for the experimental part:
The reaction was carried out for 60 min at room temperature and stopped by the addition of buffer (10 μl) containing 20 mM EDTA, 0.05% (v/v) Brij-35, in 0.1M HEPES-buffered saline (Free acid, Sigma, UK). The plate was read on a Caliper EZ reader II (Caliper Life Sciences).
The reader provides a Software package (‘Reviewer’) which converts the peak heights into % conversion by measuring both product and substrate peak and also allows selection of control well which represent 0% and 100% inhibition respectively. The % inhibition of the compounds is calculated relative to the means of selected control wells. IC50s are determined by testing the compounds at a range of concentrations from 0.25 nM-100 μM. The % inhibitions at each concentration are then fitted to a 4 parameter logistic fit: y=(a+((b−a)/(1+((c/x^d)))) where a=asym min, b=asym max, c=IC50 and d=hill coefficient
Broadly, the pIC50 is −log10 of the IC50, conventionally taken in molar units. `COCCn1cc(-c2ccc3cnc(Nc4ccc(-c5cnc(C)n5CCOC)cc4OC)cc3c2)cn1` [Example 31, N-(2-Methoxy-4-(1-(2-methoxyethyl)-2-methyl-1H-imidazol-5-yl)phenyl)-6-(1-(2-methoxyethyl)-1H-pyrazol-4-yl)isoquinolin-3-amine] had a pIC50 of 8.70. Regarding `COc1cc(-c2cnc(C)n2C)ccc1Nc1cc2cc(-c3cnn(CC(C)O)c3)ccc2cn1` (racemic) [Example 38, 1-(4-(3-((4-(1,2-Dimethyl-1H-imidazol-5-yl)-2-methoxyphenyl)amino)isoquinolin-6-yl)-1H-pyrazol-1-yl)propan-2-ol], the pIC50 is 8.70. The compound `COc1cc(C(=O)N2CC(OC)C2)ccc1Nc1cc2cc(-c3cnn(CC(O)CO)c3)ccc2cn1` (racemic) [Example 81, (4-((6-(1-(2,3-Dihydroxypropyl)-1H-pyrazol-4-yl)isoquinolin-3-yl)amino)-3-methoxyphenyl)(3-methoxyazetidin-1-yl)methanone] showed a negative-log IC50 (pIC50) of 8.52. This pIC50 and that of the compound before are within 0.2 log units of each other. The same measure for `COc1cc(C(=O)N2CC(OC)C2)ccc1Nc1cc2nc(-c3cnn(CC(C)(C)O)c3)ccc2cn1` [Example 104, (4-(2-(1-(2-Hydroxy-2-methylpropyl)-1H-pyrazol-4-yl)-1,6-naphthyridin-7-ylamino)-3-methoxyphenyl)(3-methoxyazetidin-1-yl)methanone]: 8.70; for `COc1cc(-c2cnc(C)n2C)ccc1Nc1cc2cc(-c3ccc(C)nc3)ccc2cn1` [Example 11, N-(4-(1,2-dimethyl-1H-imidazol-5-yl)-2-methoxyphenyl)-6-(6-methylpyridin-3-yl)isoquinolin-3-amine]: 8.70; for `COc1cc(-c2cnc(C)n2C)ccc1Nc1cc2cc(-c3cncnc3)ccc2cn1` [Example 17, N-(4-(1,2-dimethyl-1H-imidazol-5-yl)-2-methoxyphenyl)-6-(pyrimidin-5-yl)isoquinolin-3-amine]: 7.85. `CC(C)(O)Cn1cc(-c2ccc3cnc(Nc4ccc(N5CCOCC5)cc4Cl)cc3c2)cn1` [Example 45, 1-(4-(3-(2-Chloro-4-morpholinophenylamino)isoquinolin-6-yl)-1H-pyrazol-1-yl)-2-methylpropan-2-ol] had a pIC50 of 7.35. Take `COc1cc(C(=O)N2CC(OC)C2)ccc1Nc1cc2cc(-c3cnn(CC(C)(C)OC)c3)ccc2cn1` [Example 74, (3-Methoxy-4-((6-(1-(2-methoxy-2-rnethylpropyl)-1H-pyrazol-4-yl)isoquinolin-3-yl)amino)-phenyl)(3-methoxyazetidin-1-yl)methanone]: the negative logarithm of the IC50 (pIC50) was 8.52.

In turn, `COc1c(Nc2cc3cc(-c4cnn(CC(C)(C)O)c4)ccc3cn2)ccc(-c2cnc(C)n2C)c1F` [Example 50, 1-(4-(3-(4-(1,2-Dimethyl-1H-imidazol-5-yl)-3-fluoro-2-methoxyphenylamino)isoquinolin-6-yl)-1H-pyrazol-1-yl)-2-methylpropan-2-ol] gave a pIC50 of 8.70.

On to `COc1cc(-c2cnc(C)n2C)ccc1Nc1cc2cc(-c3cn(C)nc3C)ccc2cn1` [Example 19, N-(4-(1,2-dimethyl-1H-imidazol-5-yl)-2-methoxyphenyl)-6-(1,3-dimethyl-1H-pyrazol-4-yl)isoquinolin-3-amine], for which the pIC50 was 7.52. Compared with the last compound, the pIC50 is 1.18 log units lower. As to `COc1cc(-c2cnc(C)n2C)ccc1Nc1cc2cc(-c3cnn(CC4(C)COC4)c3)ccc2cn1` [Example 30, N-(4-(1,2-Dimethyl-1H-imidazol-5-yl)-2-methoxyphenyl)-6-(1-((3-methyloxetan-3-yl)methyl)-1H-pyrazol-4-yl)isoquinolin-3-amine], the pIC50 is 8.70. This pIC50 is 1.18 log units higher than that of the compound before. Take `COc1cc(-c2cnc(C)n2C)ccc1Nc1cc2cc(-c3cnn(C)c3C)ccc2cn1` [Example 20, N-(4-(1,2-dimethyl-1H-imidazol-5-yl)-2-methoxyphenyl)-6-(1,5-dimethyl-1H-pyrazol-4-yl)isoquinolin-3-amine]: the negative logarithm of the IC50 (pIC50) was 8.70.
